Measured values from patent US11472798B2 (Mission Therapeutics Limited, priority 2014, dated 2022).

Target: T1, UCHL1 (Homo sapiens, UniProt P09936)
T1 construct: made in house; host or cells: HEK293T
T1 sequence (P09936 1-223): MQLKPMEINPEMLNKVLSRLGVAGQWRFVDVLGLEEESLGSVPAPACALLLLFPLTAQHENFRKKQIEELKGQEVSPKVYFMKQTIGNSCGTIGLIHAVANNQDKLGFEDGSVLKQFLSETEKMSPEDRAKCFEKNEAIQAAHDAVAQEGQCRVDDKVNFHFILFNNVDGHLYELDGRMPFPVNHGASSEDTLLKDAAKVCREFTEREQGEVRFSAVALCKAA
Assay: UCHL1 biochemical IC50 assay (fluorescence polarisation)
Settings: 30 min enzyme/compound pre-incubation at room temp, read after 2 hr incubation, read-out: Activity range (UCHL1 biochemical IC50 assay)
Excerpt: Biological Activity of Compounds of the Invention Abbreviations: TAMRA carboxytetramethylrhodamine PCR polymerase chain reaction PBS phosphate buffered saline EDTA ethylenediaminetetraacetic acid Tris 2-amino-2-(hydroxymethyl)-1,3-propanediol NP-40 Nonidet P-40, octylphenoxypolyethoxyethanol BSA bovine serum albumin In Vitro UCHL1 Inhibition Assay Expression and Purification of UCHL1
The UCHL1 construct was PCR amplified and cloned into a pFLAG-CMV-6a vector (Sigma-Aldrich) with an N-terminal FLAG tag. HEK293T cells were transfected with FLAG-UCHL1 using TransIT-LT1 transfection reagent (Mirus) according to the manufacturer's instructions. Cells were harvested 40 hours after transfection. Cells were washed once with PBS and scraped in lysis buffer (50 mM Tris, pH 7.5, 150 mM NaCl, 3 mM EDTA, 0.5% NP40, 10% glycerol, 5 mM beta-mercaptoethanol, protease inhibitors (complete mini, Roche) and phosphatase inhibitors (PhosSTOP mini, Roche). Lysates were incubated for 30 min on ice and centrifuged at 1200 rpm for 10 min at 4° C. Soluble supernatant was added to FLAG affinity resin (EZview Rad ANTI-FLAG M2 affinity gel, Sigma-Aldrich) equilibrated in low salt buffer (20 mM Tris, pH 7.5, 150 mM NaCl, 0.5 mM EDTA, 5 mM beta-mercaptoethanol) and incubated at 4° C. for 3 hours rotating. The resin was spun at 2000 rpm for 2 min and the supernatant was removed. The resin was washed two times with low salt buffer and one time with high salt buffer (20 mM Tris, pH 7.5, 500 mM NaCl, 0.5 mM EDTA, 5 mM beta-mercaptoethanol, protease inhibitors (complete mini, Roche) and phosphatase inhibitors (PhosSTOP mini, Roche). To elute the bound UCHL1, elution buffer (10 mM Tris, pH 7.5, 150 mM NaCl, 0.5 mM FDTA, 10% glycerol, 0.5% NP40, 5 mM beta-mercaptoethanol, 0.15 mg/ml 3×FLAG peptide (Sigma-Aldrich)) was added to the resin and incubated at 4° C. for 2.5 hours rotating. The resin was centrifuged at 4000 rpm for 30 seconds, and the supernatant containing purified FLAG-UCHL1 was removed and stored at −80° C.
UCHL1 Biochemical IC50 Assay
Dilution plates were prepared at 21 times the final concentration (2100 μM for a final concentration of 100 µM) in 50% DMSO in a 96-well polypropylene V-bottom plate (Greiner #651201). A typical 8-point dilution series to be 100, 30, 10, 3, 1, 0.3, 0.1, 0.03 μM final. Reactions were performed in duplicate in black 384 well plates (small volume, Greiner 784076) in a final reaction volume of 21 μl. Either 1 μl of 50% DMSO or diluted compound was added to the plate. UCHL1 was diluted in reaction buffer (20 mM Tris, pH 7.5, 100 mM NaCl, 0.05% Tween 20, 0.5 mg/ml BSA, 5 mM—beta mercaptoethanol) to the equivalent of 0.05 μl/well and 10 μl of diluted UCHL1 was added to the compound. Enzyme and compound were incubated for 30 min at room temp. Reactions were initiated by the addition of 50 nM of TAMRA labelled peptide linked to ubiquitin via an iso-peptide bond as fluorescence polarisation substrate. Reactions were read immediately after addition of substrate and following a 2 hr incubation at room temperature. Readings were performed on a Pherastar Plus (BMG Labtech). λ Excitation 540 nm; k Emission 590 nm.

`N#CN1CCC(C(=O)Nc2ccc(N3CCOCC3)cn2)C1` (centres unmarked) [Example 28, 1-cyano-N-(5-morpholino-pyridin-2-yl)pyrrolidine-3-carboxamide] and `N#CN1CCC(C(=O)Nc2ccc(N3CCCCC3)cn2)C1` (centres unmarked) [Example 29, 1-cyano-N-(5-(piperidin-1-yl)pyridin-2-yl)pyrrolidine-3-carboxamide] fall in the same range of IC50: 1 to 10 µM for the first, 1 to 10 µM for the second.

First: N#CN1CCC(C(=O)Nc2ccc(-n3ccnc3)cn2)C1 (centres unmarked) [Example 30, N-(5-(1H-imidazol-1-yl)pyridin-2-yl)-1-cyano-pyrrolidine-3-carboxamide]
Second: N#CN1CCC(C(=O)Nc2ccc(-c3cccnc3)cn2)C1 (centres unmarked) [Example 33, N-([3,3′-bipyridin]-6-yl)-1-cyano-pyrrolidine-3-carboxamide]
The IC50 of the first is higher: 10 to 30 µM for the first, 1 to 10 µM for the second. The second is the more potent here.

First: N#CN1CCC(C(=O)Nc2cc(-c3ccccc3)ccn2)C1 (centres unmarked) [Example 31, 1-cyano-N-(4-phenylpyridin-2-yl)pyrrolidine-3-carboxamide]
Second: N#CN1CC[C@H](C(=O)Nc2cc(-c3ccccc3)[nH]n2)C1 [Example 42, (S)-1-cyano-N-(5-phenyl-1H-pyrazol-3-yl)pyrrolidine-3-carboxamide]
The IC50 of the first is higher: 1 to 10 µM for the first, under 1 µM for the second. The second is the more potent here.

`N#CN1CCC(C(=O)Nc2ccc(-c3ccccn3)cn2)C1` (centres unmarked) [Example 32, N-([2,3′-bipyridin]-6′-yl)-1-cyano-pyrrolidine-3-carboxamide] and `N#CN1CCC(C(=O)Nc2ccc(-c3ccncc3)cn2)C1` (centres unmarked) [Example 34, N-([3,4′-bipyridin]-6-yl)-1-cyano-pyrrolidine-3-carboxamide] fall in the same range of IC50: 1 to 10 µM for the first, 1 to 10 µM for the second.

First: N#CN1CCC(C(=O)Nc2ccc(-c3ccccc3)nc2)C1 (centres unmarked) [Example 35, 1-cyano-N-(6-phenylpyridin-3-yl)pyrrolidine-3-carboxamide]
Second: N#CN1CCC(C(=O)Nc2ccc(-c3ccccc3)nn2)C1 (centres unmarked) [Example 36, 1-cyano-N-(6-phenyl-pyridazin-3-yl)pyrrolidine-3-carboxamide]
The IC50 of the first is lower: 1 to 10 µM for the first, 10 to 30 µM for the second.

First: N#CN1CCC(C(=O)Nc2cnc(-c3ccccc3)nc2)C1 (centres unmarked) [Example 37, 1-cyano-N-(2-phenyl-pyrimidin-5-yl)pyrrolidine-3-carboxamide]
Second: N#CN1CC[C@H](C(=O)Nc2cn(-c3ccccc3)cn2)C1 [Example 41, (S)-1-cyano-N-(1-phenyl-1H-imidazol-4-yl)pyrrolidine-3-carboxamide]
The IC50 of the first is higher: 10 to 30 µM for the first, under 1 µM for the second.

First: N#CN1CCC(C(=O)Nc2ccc(C3CCCCC3)cn2)C1 (centres unmarked) [Example 38, 1-cyano-N-(5-cyclohexyl-pyridin-2-yl)pyrrolidine-3-carboxamide]
Second: N#CN1CC[C@H](C(=O)Nc2cc(C3CCOCC3)[nH]n2)C1 [Example 43, (S)-1-cyano-N-(5-(tetrahydro-2H-pyran-4-yl)-1H-pyrazol-3-yl)pyrrolidine-3-carboxamide]
The IC50 of the first is higher: 1 to 10 µM for the first, under 1 µM for the second. The second is the more potent here.

`N#CN1CCC(C(=O)Nc2ccc3c(cnn3Cc3ccccc3)c2)C1` (centres unmarked) [Example 39, N-(1-benzyl-1H-indazol-5-yl)-1-cyano-pyrrolidine-3-carboxamide] and `N#CN1CC[C@H](C(=O)Nc2ccn(-c3ccccc3)n2)C1` [Example 45, (S)-1-cyano-N-(1-phenyl-1H-pyrazol-3-yl)pyrrolidine-3-carboxamide] fall in the same range of IC50: 10 to 30 µM for the first, 10 to 30 µM for the second.

Compared with `CCCn1cnc2cc(NC(=O)C3CCN(C#N)C3)ccc21` (centres unmarked) [Example 40, 1-cyano-N-(1-propyl-1H-benzo[d]imidazol-5-yl)pyrrolidine-3-carboxamide], `Cc1cccc2nc(NC(=O)[C@H]3CCN(C#N)C3)sc12` [Example 47, (S)-1-cyano-N-(7-methylbenzo[d]thiazol-2-yl)-pyrrolidine-3-carboxamide] is lower in IC50: 1 to 10 µM for the first, under 1 µM for the second.

Compared with `N#CN1CC[C@H](C(=O)Nc2cn(-c3ccccc3)nn2)C1` [Example 44, (S)-1-cyano-N-(1-phenyl-1H-1,2,3-triazol-4-yl)pyrrolidine-3-carboxamide], `Cc1cccc2sc(NC(=O)[C@H]3CCN(C#N)C3)nc12` [Example 46, (S)-1-cyano-N (4-methylbenzo[d]thiazol-2-yl)pyrrolidine-3-carboxamide] is higher in IC50: 1 to 10 µM for the first, 10 to 30 µM for the second.
